In ChEMBL document CHEMBL2331514, “Structure-based design and synthesis of novel pseudosaccharine derivatives as antiproliferative agents and kinase inhibitors” (Eur J Med Chem, 2013):

Tests used:
Type in all cases: functional
HT-29 = assay: Cytotoxicity against human HT-29 cells assessed as growth inhibition at 10 uM after 48 hrs by SRB assay; conditions: HT-29, 48 h, read-out: GI
Malme-3M = assay: Cytotoxicity against human MALME-3M cells assessed as growth inhibition at 10 uM after 48 hrs by SRB assay; conditions: read-out: GI
SW-620 = assay: Cytotoxicity against human SW620 cells assessed as growth inhibition at 10 uM after 48 hrs by SRB assay; conditions: SW-620, 48 h, read-out: GI
OVCAR-8 = assay: Cytotoxicity against human OVCAR8 cells assessed as growth inhibition at 10 uM after 48 hrs by SRB assay; conditions: OVCAR-8, 48 h, read-out: GI
SK-MEL-5 = assay: Cytotoxicity against human SK-MEL-5 cells assessed as growth inhibition at 10 uM after 48 hrs by SRB assay; conditions: SK-MEL-5, 48 h, read-out: GI
UO-31 = assay: Cytotoxicity against human UO31 cells assessed as growth inhibition at 10 uM after 48 hrs by SRB assay; conditions: UO-31, 48 h, read-out: GI
SK-OV-3 = assay: Cytotoxicity against human SKOV3 cells assessed as growth inhibition at 10 uM after 48 hrs by SRB assay; conditions: SK-OV-3, 48 h, read-out: GI
T47D = assay: Cytotoxicity against human T47D cells assessed as growth inhibition at 10 uM after 48 hrs by SRB assay; conditions: read-out: GI
MOLT-4 = assay: Cytotoxicity against human MOLT4 cells assessed as growth inhibition at 10 uM after 48 hrs by SRB assay; conditions: MOLT-4, 48 h, read-out: GI
HOP-62 = assay: Cytotoxicity against human HOP62 cells assessed as growth inhibition at 10 uM after 48 hrs by SRB assay; conditions: HOP-62, 48 h, read-out: GI
MDA-MB-468 = assay: Cytotoxicity against human MDA-MB-468 cells assessed as growth inhibition at 10 uM after 48 hrs by SRB assay; conditions: MDA-MB-468, 48 h, read-out: GI
UACC-62 = assay: Cytotoxicity against human UACC62 cells assessed as growth inhibition at 10 uM after 48 hrs by SRB assay; conditions: UACC-62, 48 h, read-out: GI
TK-10 = assay: Cytotoxicity against human TK10 cells assessed as growth inhibition at 10 uM after 48 hrs by SRB assay; conditions: TK-10, 48 h, read-out: GI
OVCAR-3 = assay: Cytotoxicity against human OVCAR3 cells assessed as growth inhibition at 10 uM after 48 hrs by SRB assay; conditions: OVCAR-3, 48 h, read-out: GI
NCI-H226 = assay: Cytotoxicity against human NCI-H226 cells assessed as growth inhibition at 10 uM after 48 hrs by SRB assay; conditions: NCI-H226, 48 h, read-out: GI
SF-268 = assay: Cytotoxicity against human SF268 cells assessed as growth inhibition at 10 uM after 48 hrs by SRB assay; conditions: SF-268, 48 h, read-out: GI
KM12 = assay: Cytotoxicity against human KM12 cells assessed as growth inhibition at 10 uM after 48 hrs by SRB assay; conditions: KM12, 48 h, read-out: GI
786-0 = assay: Cytotoxicity against human 786-0 cells assessed as growth inhibition at 10 uM after 48 hrs by SRB assay; conditions: 786-0, 48 h, read-out: GI
MDA-MB-435 = assay: Cytotoxicity against human MDA-MB-435 cells assessed as growth inhibition at 10 uM after 48 hrs by SRB assay; conditions: MDA-MB-435, 48 h, read-out: GI
NCI-H23 = assay: Cytotoxicity against human NCI-H23 cells assessed as growth inhibition at 10 uM after 48 hrs by SRB assay; conditions: NCI-H23, 48 h, read-out: GI
A498 = assay: Cytotoxicity against human A498 cells assessed as growth inhibition at 10 uM after 48 hrs by SRB assay; conditions: A498, 48 h, read-out: GI
[1] = Cytotoxicity against human NCI-ADR-RES cells assessed as growth inhibition at 10 uM after 48 hrs by SRB assay; conditions: read-out: GI
NCI-H322M = assay: Cytotoxicity against human NCI-H322M cells assessed as growth inhibition at 10 uM after 48 hrs by SRB assay; conditions: read-out: GI
RPMI-8226 = assay: Cytotoxicity against human RPMI8226 cells assessed as growth inhibition at 10 uM after 48 hrs by SRB assay; conditions: RPMI-8226, 48 h, read-out: GI
SK-MEL-2 = assay: Cytotoxicity against human SK-MEL-2 cells assessed as growth inhibition at 10 uM after 48 hrs by SRB assay; conditions: SK-MEL-2, 48 h, read-out: GI
SF-539 = assay: Cytotoxicity against human SF539 cells assessed as growth inhibition at 10 uM after 48 hrs by SRB assay; conditions: SF-539, 48 h, read-out: GI
HCT-15 = assay: Cytotoxicity against human HCT15 cells assessed as growth inhibition at 10 uM after 48 hrs by SRB assay; conditions: HCT-15, 48 h, read-out: GI
A549 = assay: Cytotoxicity against human A549/ATCC cells assessed as growth inhibition at 10 uM after 48 hrs by SRB assay; conditions: A549, 48 h, read-out: GI
SR = assay: Cytotoxicity against human SR cells assessed as growth inhibition at 10 uM after 48 hrs by SRB assay; conditions: read-out: GI
CAKI-1 = assay: Cytotoxicity against human Caki1 cells assessed as growth inhibition at 10 uM after 48 hrs by SRB assay; conditions: CAKI-1, 48 h, read-out: GI
OVCAR-5 = assay: Cytotoxicity against human OVCAR5 cells assessed as growth inhibition at 10 uM after 48 hrs by SRB assay; conditions: OVCAR-5, 48 h, read-out: GI
HCC 2998 = assay: Cytotoxicity against human HCC2998 cells assessed as growth inhibition at 10 uM after 48 hrs by SRB assay; conditions: HCC 2998, 48 h, read-out: GI
U-251 = assay: Cytotoxicity against human U251 cells assessed as growth inhibition at 10 uM after 48 hrs by SRB assay; conditions: U-251, 48 h, read-out: GI
SK-MEL-28 = assay: Cytotoxicity against human SK-MEL-28 cells assessed as growth inhibition at 10 uM after 48 hrs by SRB assay; conditions: SK-MEL-28, 48 h, read-out: GI
Hs-578T = assay: Cytotoxicity against human Hs578T cells assessed as growth inhibition at 10 uM after 48 hrs by SRB assay; conditions: read-out: GI
NCI-H460 = assay: Cytotoxicity against human NCI-H460 cells assessed as growth inhibition at 10 uM after 48 hrs by SRB assay; conditions: NCI-H460, 48 h, read-out: GI
SNB-75 = assay: Cytotoxicity against human SNB75 cells assessed as growth inhibition at 10 uM after 48 hrs by SRB assay; conditions: SNB-75, 48 h, read-out: GI

**Q.** Which inhibition of growth at 10 µM (HT-29) does the source give for `O=C(Nc1ccccc1)Nc1ccc(NC2=NS(=O)(=O)c3ccccc32)cc1` here?
**A.** 1%

**Q.** What about the inhibition of growth at 10 µM (Malme-3M) of the same compound?
**A.** -1%

**Q.** What about the inhibition of growth at 10 µM (SW-620) of the same compound?
**A.** -4%

**Q.** And the inhibition of growth at 10 µM (OVCAR-8)?
**A.** -5%

**Q.** And the inhibition of growth at 10 µM (SK-MEL-5)?
**A.** 6%

**Q.** And the inhibition of growth at 10 µM (UO-31)?
**A.** 7%

**Q.** And the inhibition of growth at 10 µM (SK-OV-3)?
**A.** -7%

**Q.** And the inhibition of growth at 10 µM (T47D)?
**A.** 10%

**Q.** What about the inhibition of growth at 10 µM (MOLT-4) of the same compound?
**A.** 4%

**Q.** What about the inhibition of growth at 10 µM (HOP-62) of the same compound?
**A.** -11%

**Q.** What about the inhibition of growth at 10 µM (MDA-MB-468) of the same compound?
**A.** -11%

**Q.** And the inhibition of growth at 10 µM (UACC-62)?
**A.** -7%

**Q.** What about the inhibition of growth at 10 µM (TK-10) of the same compound?
**A.** -12%

**Q.** What about the inhibition of growth at 10 µM (OVCAR-3) of the same compound?
**A.** -11%

**Q.** What about the inhibition of growth at 10 µM (NCI-H226) of the same compound?
**A.** 10%

**Q.** And the inhibition of growth at 10 µM (SF-268)?
**A.** -1%

**Q.** And the inhibition of growth at 10 µM (KM12)?
**A.** -6%

**Q.** And the inhibition of growth at 10 µM (786-0)?
**A.** 3%

**Q.** What about the inhibition of growth at 10 µM (MDA-MB-435) of the same compound?
**A.** 0%

**Q.** What about the inhibition of growth at 10 µM (NCI-H23) of the same compound?
**A.** 3%

**Q.** And the inhibition of growth at 10 µM (A498)?
**A.** 16%

**Q.** What about the inhibition of growth at 10 µM [1] of the same compound?
**A.** -2%

**Q.** What about the inhibition of growth at 10 µM (NCI-H322M) of the same compound?
**A.** -8%

**Q.** What about the inhibition of growth at 10 µM (RPMI-8226) of the same compound?
**A.** -2%

**Q.** What about the inhibition of growth at 10 µM (SK-MEL-2) of the same compound?
**A.** -14%

**Q.** And the inhibition of growth at 10 µM (SF-539)?
**A.** 5%

**Q.** And the inhibition of growth at 10 µM (HCT-15)?
**A.** -7%

**Q.** What about the inhibition of growth at 10 µM (A549) of the same compound?
**A.** 3%

**Q.** And the inhibition of growth at 10 µM (SR)?
**A.** 3%

**Q.** And the inhibition of growth at 10 µM (CAKI-1)?
**A.** 2%

**Q.** What about the inhibition of growth at 10 µM (OVCAR-5) of the same compound?
**A.** -2%

**Q.** And the inhibition of growth at 10 µM (HCC 2998)?
**A.** -7%

**Q.** And the inhibition of growth at 10 µM (U-251)?
**A.** 1%

**Q.** What about the inhibition of growth at 10 µM (SK-MEL-28) of the same compound?
**A.** -10%

**Q.** And the inhibition of growth at 10 µM (Hs-578T)?
**A.** -9%

**Q.** And the inhibition of growth at 10 µM (NCI-H460)?
**A.** -3%

**Q.** What about the inhibition of growth at 10 µM (SNB-75) of the same compound?
**A.** 19%
